Values quoted from earlier work as cited in article PMC5356695, “A phase 1 study of oral ridaforolimus in pediatric patients with advanced solid tumors” (Oncotarget, 2016).

Key:
[1] = test system: children with refractory solid tumors; parameters: method as in PMID 17947729; details: cited from earlier work
[2] = test system: in vivo solid tumor models; parameters: method as in PMID 17635004; details: cited from earlier work
[3] = test system: neuroblastoma and high-grade glioma; parameters: method as in PMID 22033322; details: single-agent therapy; cited from earlier work
[4] = test system: children with recurrent or refractory solid tumors; parameters: method as in PMID 21690471; details: highest dose tested 150 mg/m^2, once weekly; cited from earlier work
[5] = test system: pediatric patients with advanced solid tumors; parameters: method as in PMID 27185573; details: dalotuzumab alone; cited from earlier work

## CO[C@H]1C[C@@H]2CC[C@@H](C)[C@@](O)(O2)C(=O)C(=O)N2CCCC[C@H]2C(=O)O[C@H]([C@H](C)C[C@@H]2CC[C@@H](OCCO)[C@H](OC)C2)CC(=O)[C@H](C)/C=C(\C)[C@@H](O)[C@@H](OC)C(=O)[C@H](C)C[C@H](C)/C=C/C=C/C=C/1C [everolimus]
[1]; children, oral
  RP2D: 5 mg/m^2
[1]; highest dose of 6.5 mg/m^2, oral
  Patients with DLTs (grade 3 increased ALT, mucositis, diarrhea): 3 of 3

## CO[C@H]1C[C@@H]2CC[C@@H](C)[C@@](O)(O2)C(=O)C(=O)N2CCCC[C@H]2C(=O)O[C@H]([C@H](C)C[C@@H]2CC[C@@H](O)[C@H](OC)C2)CC(=O)[C@H](C)/C=C(\C)[C@@H](O)[C@@H](OC)C(=O)[C@H](C)C[C@H](C)/C=C/C=C/C=C/1C [rapamycin]
[2]
  Models with significant differences in event-free survival distributions compared with controls: 27 of 36

## CO[C@H]1C[C@@H]2CC[C@@H](C)[C@@](O)(O2)C(=O)C(=O)N2CCCC[C@H]2C(=O)O[C@H]([C@H](C)C[C@@H]2CC[C@@H](OC(=O)C(C)(CO)CO)[C@H](OC)C2)CC(=O)[C@H](C)/C=C(\C)[C@@H](O)[C@@H](OC)C(=O)[C@H](C)C[C@H](C)/C=C/C=C/C=C/1C [temsirolimus]
[3]
  Disease stabilization: Prolonged stable disease was observed
[4]
  Patients with DLT (grade 3 anorexia): 1 of 7

## dalotuzumab: anti-IGF1R monoclonal antibody
[5]
  Patients with confirmed partial response: 1 of 20
